PubChem BioAssay (NCI)
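Each compound was tested at five concentrations against cells in 96-well plates for 48 hours. Definition used: TGI = concentration required for complete inhibition of growth.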

How the values were obtained:
Assay in all cases: NCI tumour cell line growth inhibition, 48 h
ACHN renal = system: ACHN renal
SNB-78 CNS = system: SNB-78 CNS
SNB-75 CNS = system: SNB-75 CNS
RXF-631 renal = system: RXF-631 renal
HCT-116 colon = system: HCT-116 colon
SF-295 CNS = system: SF-295 CNS
K-562 leukemia = system: K-562 leukemia
U251 CNS = system: U251 CNS
KM12 colon = system: KM12 colon
HCC-2998 colon = system: HCC-2998 colon
MOLT-4 leukemia = system: MOLT-4 leukemia
IGROV1 ovarian = system: IGROV1 ovarian
DMS 273 small cell lung = system: DMS 273 small cell lung
TK-10 renal = system: TK-10 renal
HT29 colon = system: HT29 colon
SW-620 colon = system: SW-620 colon
OVCAR-4 ovarian = system: OVCAR-4 ovarian
SK-MEL-5 melanoma = system: SK-MEL-5 melanoma
UO-31 renal = system: UO-31 renal
HCT-15 colon = system: HCT-15 colon
NCI-H226 lung = system: NCI-H226 lung
OVCAR-5 ovarian = system: OVCAR-5 ovarian
A498 renal = system: A498 renal
HOP-92 NSCLC = system: HOP-92 NSCLC
XF 498 CNS = system: XF 498 CNS
MALME-3M melanoma = system: MALME-3M melanoma
786-0 renal = system: 786-0 renal
HOP-62 NSCLC = system: HOP-62 NSCLC
SF-539 CNS = system: SF-539 CNS
NCI-H460 lung = system: NCI-H460 lung
CAKI-1 renal = system: CAKI-1 renal
M14 melanoma = system: M14 melanoma
DMS 114 small cell lung = system: DMS 114 small cell lung
SK-MEL-2 melanoma = system: SK-MEL-2 melanoma
LOX IMVI melanoma = system: LOX IMVI melanoma
UACC-257 melanoma = system: UACC-257 melanoma
KM20L2 colon = system: KM20L2 colon
CCRF-CEM leukemia = system: CCRF-CEM leukemia
M19-MEL melanoma = system: M19-MEL melanoma
UACC-62 melanoma = system: UACC-62 melanoma
LXFL 529 NSCLC = system: LXFL 529 NSCLC
SK-MEL-28 melanoma = system: SK-MEL-28 melanoma
COLO 205 colon = system: COLO 205 colon
DLD-1 colon = system: DLD-1 colon
SK-OV-3 ovarian = system: SK-OV-3 ovarian
HOP-18 NSCLC = system: HOP-18 NSCLC
SNB-19 CNS = system: SNB-19 CNS
HL-60(TB) leukemia = system: HL-60(TB) leukemia
EKVX NSCLC = system: EKVX NSCLC
RPMI-8226 leukemia = system: RPMI-8226 leukemia
SN12C renal = system: SN12C renal
NCI-H522 lung = system: NCI-H522 lung
OVCAR-8 ovarian = system: OVCAR-8 ovarian
NCI-H23 lung = system: NCI-H23 lung
SF-268 CNS = system: SF-268 CNS
OVCAR-3 ovarian = system: OVCAR-3 ovarian
A549 NSCLC = system: A549 NSCLC

Molecule CC[C@@H](C(=O)[C@@H](C)[C@@H](O)[C@H](C)CCc1ccc(C)c(O)c1C(=O)O)[C@H]1O[C@](CC)([C@H]2CC[C@](O)(CC)[C@H](C)O2)C[C@@H]1C has a TGI (ACHN renal) of 13.2 µM, a TGI (SNB-78 CNS) of 17.1 µM and a TGI (SNB-75 CNS) of 7.07 µM. It also gave a TGI (RXF-631 renal) of 10.7 µM, a TGI (HCT-116 colon) of 9.65 µM and a TGI (SF-295 CNS) of 6.91 µM. For the same molecule, the TGI (K-562 leukemia) was 3.05 µM, the TGI (U251 CNS) was 6.33 µM and the TGI (KM12 colon) was 9.57 µM. It also gave a TGI (HCC-2998 colon) of 11.4 µM, a TGI (MOLT-4 leukemia) of 3.12 µM and a TGI (IGROV1 ovarian) of 13.3 µM. For the same molecule, the TGI (DMS 273 small cell lung) was 8.1 µM, the TGI (TK-10 renal) was 12.6 µM and the TGI (HT29 colon) was 12.6 µM. The TGI (SW-620 colon) was 15.6 µM, the TGI (OVCAR-4 ovarian) was 19.2 µM and the TGI (SK-MEL-5 melanoma) was 3.62 µM. The TGI (UO-31 renal) was 12.4 µM, the TGI (HCT-15 colon) was 16 µM and the TGI (NCI-H226 lung) was 10.8 µM. The TGI (OVCAR-5 ovarian) was 19.3 µM, the TGI (A498 renal) was 2370 nM and the TGI (HOP-92 NSCLC) was 8.96 µM. It also gave a TGI (XF 498 CNS) of 3.41 µM, a TGI (MALME-3M melanoma) of 2420 nM and a TGI (786-0 renal) of 13.5 µM. It also gave a TGI (HOP-62 NSCLC) of 4.24 µM, a TGI (SF-539 CNS) of 5.46 µM and a TGI (NCI-H460 lung) of 9.47 µM. It also gave a TGI (CAKI-1 renal) of 11.7 µM, a TGI (M14 melanoma) of 13.8 µM and a TGI (DMS 114 small cell lung) of 4.15 µM. The TGI (SK-MEL-2 melanoma) was 3.82 µM, the TGI (LOX IMVI melanoma) was 12 µM and the TGI (UACC-257 melanoma) was 11.3 µM. The TGI (KM20L2 colon) was 11.6 µM, the TGI (CCRF-CEM leukemia) was 6.29 µM and the TGI (M19-MEL melanoma) was 4.06 µM. The TGI (UACC-62 melanoma) was 4.04 µM, the TGI (LXFL 529 NSCLC) was 4.94 µM and the TGI (SK-MEL-28 melanoma) was 2860 nM. The TGI (COLO 205 colon) was 4.76 µM, the TGI (DLD-1 colon) was 13.8 µM and the TGI (SK-OV-3 ovarian) was 10.2 µM. It also gave a TGI (HOP-18 NSCLC) of 13.1 µM, a TGI (SNB-19 CNS) of 5.95 µM and a TGI (HL-60(TB) leukemia) of 1540 nM. For the same molecule, the TGI (EKVX NSCLC) was 9 µM, the TGI (RPMI-8226 leukemia) was 5.28 µM and the TGI (SN12C renal) was 10 µM. The TGI (NCI-H522 lung) was 3.11 µM, the TGI (OVCAR-8 ovarian) was 14.3 µM and the TGI (NCI-H23 lung) was 6.87 µM. The TGI (SF-268 CNS) was 9.09 µM, the TGI (OVCAR-3 ovarian) was 10.9 µM and the TGI (A549 NSCLC) was 11.9 µM.
